# Test results reported in the supplement of paper PMC10307832.
# Tests used:
# Assay in all cases: relative viability (nuclei count vs DMSO), 5 days (fraction); higher = more cells survive
# Serdemetan + Lapatinib = compound: c1ccc2c(CCNc3ccc(Nc4ccncc4)cc3)c[nH]c2c1 [Serdemetan] + CS(=O)(=O)CCNCc1ccc(-c2ccc3ncnc(Nc4ccc(OCc5cccc(F)c5)c(Cl)c4)c3c2)o1 [Lapatinib] (partner 2 µM)
# Summary of the method: (§1)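 Lung cancer cell lines in 1536-well plates got either a single drug or a fixed anchor-drug dose together with five library-drug doses (not always all listed) in √10 steps, by pin tool, on the day after seeding. Nuclei were counted after 5 days, and relative viability is the treated-to-vehicle ratio of nuclei counts. Values are medians of duplicate plates.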
# Selisistat + OSI-027 = compound: C1CC(C2=C(C1)C3=C(N2)C=CC(=C3)Cl)C(=O)N [Selisistat] + COc1cccc2cc(-c3nc([C@H]4CC[C@H](C(=O)O)CC4)n4ncnc(N)c34)[nH]c12 [OSI-027] (partner 0.5 µM)
# Summary of the method: as §1
# Serdemetan + Luminespib = compound: c1ccc2c(CCNc3ccc(Nc4ccncc4)cc3)c[nH]c2c1 [Serdemetan] + CCNC(=O)c1noc(-c2cc(C(C)C)c(O)cc2O)c1-c1ccc(CN2CCOCC2)cc1 [Luminespib] (partner 0.01 µM)
# Summary of the method: as §1
# Serdemetan + AZD7762 = compound: c1ccc2c(CCNc3ccc(Nc4ccncc4)cc3)c[nH]c2c1 [Serdemetan] + NC(=O)Nc1cc(-c2cccc(F)c2)sc1C(=O)N[C@H]1CCCNC1 [AZD7762] (partner 0.2 µM)
# Summary of the method: as §1
Cell Line,relative viability (Serdemetan + Lapatinib; first compound 0.04 µM),relative viability (Serdemetan + Lapatinib; first compound 0.1265 µM),relative viability (Serdemetan + Lapatinib; first compound 0.4 µM),relative viability (Serdemetan + Lapatinib; first compound 1.265 µM),relative viability (Serdemetan + Lapatinib; first compound 4 µM),relative viability (Selisistat + OSI-027; first compound 0.4 µM),relative viability (Selisistat + OSI-027; first compound 1.265 µM),relative viability (Selisistat + OSI-027; first compound 4 µM),relative viability (Selisistat + OSI-027; first compound 12.65 µM),relative viability (Selisistat + OSI-027; first compound 40 µM),relative viability (Serdemetan + Luminespib; first compound 0.04 µM),relative viability (Serdemetan + Luminespib; first compound 0.1265 µM),relative viability (Serdemetan + Luminespib; first compound 0.4 µM),relative viability (Serdemetan + Luminespib; first compound 1.265 µM),relative viability (Serdemetan + Luminespib; first compound 4 µM),relative viability (Serdemetan + AZD7762; first compound 0.04 µM),relative viability (Serdemetan + AZD7762; first compound 0.1265 µM),relative viability (Serdemetan + AZD7762; first compound 0.4 µM),relative viability (Serdemetan + AZD7762; first compound 1.265 µM),relative viability (Serdemetan + AZD7762; first compound 4 µM)
201T,0.976,0.943,1.04,0.937,0.94,0.797,0.705,0.555,0.587,0.739,1.05,1.07,1.03,0.895,0.692,0.624,0.502,0.846,0.378,0.422
A549,1.06,0.916,0.901,0.953,0.455,,,,,,,,,,,,,,,
A-427,0.996,0.987,1.1,1.02,0.749,0.455,0.432,0.301,0.421,0.57,0.934,0.924,0.953,0.742,0.49,0.759,0.671,0.664,0.538,0.495
ABC-1,1.08,1.07,1.25,,0.717,0.499,0.447,0.331,0.442,0.436,0.581,0.648,0.515,0.567,0.516,0.971,0.67,0.722,,0.866
BEN,0.623,0.704,0.592,0.359,0.556,0.263,0.251,0.282,0.282,0.274,0.24,0.2,0.461,,0.329,0.75,0.545,0.662,0.556,0.641
CAL-12T,,0.859,,0.599,0.579,0.726,0.535,0.472,0.53,0.694,0.227,0.28,0.141,0.266,0.486,0.557,0.609,0.555,0.547,0.599
COR-L23,0.916,0.924,1.03,0.422,0.78,0.866,0.803,0.799,0.653,0.653,0.724,0.639,0.644,0.631,0.432,,,,,
COR-L 105,0.384,0.372,0.284,0.335,0.363,0.755,0.624,,0.712,0.584,1.3,0.911,0.64,0.693,0.588,,,,,
Calu-6,1.13,0.99,0.989,0.887,0.68,,,,,,,,,,,,,,,
ChaGo-K-1,,,,,,0.588,0.461,0.492,0.535,0.617,0.688,0.463,0.445,0.27,0.227,0.876,0.801,0.75,0.507,0.545
EBC-1,0.23,0.238,0.218,0.21,0.203,,,,,,,,,,,,,,,
EKVX,0.193,0.19,0.201,0.18,0.168,0.756,0.754,0.689,0.69,0.697,0.947,0.925,0.861,,0.585,0.808,0.746,,,0.649
EMC-BAC-2,0.909,0.899,0.92,0.732,0.841,0.391,0.358,0.462,0.362,0.342,1.14,1.12,1.13,0.616,0.636,1.08,1.1,1.07,0.955,0.827
EPLC-272H,1.01,0.905,1.07,0.618,0.944,0.274,0.237,,0.289,0.289,0.307,0.401,0.373,0.252,0.602,0.245,0.217,0.221,0.221,0.215
H3255,0.222,0.229,0.258,0.251,0.186,0.621,0.553,0.741,0.579,0.648,0.913,1.02,0.783,0.994,0.669,0.826,0.601,0.733,0.832,0.792
HARA,0.653,0.773,0.68,,0.604,0.632,0.405,0.382,0.508,0.477,0.767,0.604,0.606,0.303,0.199,0.298,0.196,0.266,0.23,0.304
HCC-15,0.819,0.847,0.84,0.657,0.637,0.81,0.676,,0.622,0.618,0.362,0.33,0.281,0.348,0.288,0.952,1.49,1.23,0.72,1.07
HCC-44,0.875,0.99,0.862,0.913,0.873,0.591,,,0.457,0.586,0.894,1.08,1.01,0.906,0.901,0.921,1.01,0.994,0.936,0.934
HCC-78,0.769,0.666,0.323,0.448,0.78,0.379,0.346,0.316,0.382,0.359,,,,,,0.578,0.571,0.514,0.589,0.503
HCC-366,1.07,0.811,0.902,0.0523,0.0553,1.01,0.837,0.605,0.889,0.898,,,,,,0.124,0.0954,0.0688,0.0374,0.0632
